Assay results published in patent US8735620B2, “Processes for preparing (E)-styrylbenzylsulfone compounds and uses thereof for treating proliferative disorders” (priority 2008, dated 2014).
Like-named read-outs stand apart in the source and are kept apart here.

How the values were obtained:
[1] = system: H157 (human lung tumor cell line); test: Cytotoxicity assay (trypan blue exclusion, 96 h), H157; format: cell-based
Sk-OV-3 = test: Tumor cell killing, Sk-OV-3; format: cell-based, human; details: Sk-OV-3, OVARIAN; read-out: Tumor cell killing (IC50) concentration
Procedure: (§1) Tissue Culture and Reagents: Paclitaxel was purchased from Sigma. Cell lines were purchased from ATCC. Cell lines were routinely grown in DMEM or RPM1 (CellGro) supplemented with 10% fetal bovine serum (Atlas) and 1 unit/mL penicillin-streptomycin (Gibco).
(§2) A number of tumor cell lines were tested using a dose response end point assay system. The cells were grown in either DMEM or RPMI supplemented with 10% fetal bovine serum and 1 unit/mL Penicillin-Streptomycin solution. The tumor cells were plated into 6 well dishes at a cell density of 1.0×10^5 cells/mL/well and compounds were added 24 h later at various concentrations. Cell counts were determined from duplicate wells after 96 h of treatment. The total number of viable cells was determined by trypan blue exclusion.

HCT-116 = test: Tumor cell killing, HCT-116; format: cell-based, human; details: HCT-116, COLO-RECTAL; read-out: Tumor cell killing (IC50) concentration
Procedure: as §1, §2

SW480 = test: Tumor cell killing, SW480; format: cell-based, human; details: SW480, COLO-RECTAL; read-out: Tumor cell killing (IC50) concentration
Procedure: as §1, §2

K562 = test: Tumor cell killing, K562; format: cell-based, human; details: K562, CML; read-out: Tumor cell killing (IC50) concentration
Procedure: as §1, §2

Daudi = test: Tumor cell killing, Daudi; format: cell-based, human; details: Burkitt's Lymphoma (B-cell), read-out: Tumor cell killing (IC50) concentration
MES-SA/DX5 = test: Tumor cell killing, MES-SA/DX5 (multidrug resistant subline); format: cell-based, human; details: for IC50: *MESSA/DX5, RESISTANT SARCOMA (multi-drug resistant), read-out: Tumor cell killing (IC50) concentration
Procedure: A. 6aa inhibits the growth of parental (MES-SA) and Paclitaxel resistant (MES-SA/DX5) cell lines with equal efficiency. The parental uterine sarcoma cells and the MDR positive (MES-SA/DX5) cells were plated into 6 well dishes and treated with various concentrations of 6aa and Paclitaxel for 96 h. The number of viable cells from duplicate plates was determined by trypan blue exclusion. B. Soft Agar Assays. MIA-PaCa-2 cells (1.0×10^5) were plated in soft agar containing various concentrations of each compound in triplicates. After three weeks of growth, the plates were stained for 48 h using 0.05% nitroblue tetrazolium solution. Representative plates were photographed using an Olympus stereoscope mounted with a Sony digital camera system (DKC5000, Sony Inc). Tissue Culture and Reagents: […] Cell lines were purchased from ATCC. Cell lines were routinely grown in DMEM or RPM1 (CellGro) supplemented with 10% fetal bovine serum (Atlas) and 1 unit/mL penicillin-streptomycin (Gibco). A number of tumor cell lines were tested using a dose response end point assay system. The cells were grown in either DMEM or RPMI supplemented with 10% fetal bovine serum and 1 unit/mL Penicillin-Streptomycin solution. […] Cell counts were determined from duplicate wells after 96 h of treatment. The total number of viable cells was determined by trypan blue exclusion.

2008 = test: Tumor cell killing, 2008; format: cell-based, human; details: 2008, Ovarian; read-out: Tumor cell killing (IC50) concentration
Procedure: as §1, §2

2008/17/4 = test: Tumor cell killing, 2008/17/4; format: cell-based, human; details: *2008/17/4, Resistant Ovarian (multi-drug resistant); read-out: Tumor cell killing (IC50) concentration
Procedure: as §1, §2

BT20 = test: Soft agar colony formation, BT20; format: cell-based, human; details: BT20, dose dependent
HUVEC = test: PARP cleavage western blot, normal cells; format: cell-based, human; details: HUVEC, 24, 48 and 72 h
Procedure: FIG. 2 Preferential tumor cell killing activity of 6aa. A. Cell Cycle analyses. Normal (HUVEC) and tumor cells (DU145) were treated with 20 nM concentration of 6aa and incubated in medium containing 10% fetal bovine serum. At 24 hr intervals, the cells were fixed, stained with propidium iodide and analyzed for their DNA content by flow Cytometry. B. Induction of apoptosis in normal (HUVEC) and tumor cells (DU145) was assessed by western blot analysis of cell lysates treated with 6aa for 24, 48 and 72 h. The Western blots were probed with anti-PARP antibodies to assess the cleavage of the protein.
[…] were plated at a density of 3.0×10^6 cells per 150 mm^2 plate and treated 24 h later with either DMSO or 6aa. The cells were collected at the indicated time points and cell pellets were frozen. The frozen cell pellets were lysed in 1% NP40/PBS lysis buffer containing protease inhibitors. Equal amounts of total cellular protein was then resolved on a 10%-SDS-polyacrylamide gel. The gels were transferred onto nitrocellulose paper (S/S), hybridized with anti-PARP antibodies (BD) and developed using ECL (Perkin-Elmer, MA) solution.

bone marrow cells = test: Bone marrow harvest and colony formation assay; format: in vivo, CD-1 mice; details: 100 mg/kg intravenously, 12, 24 and 48 h after injection
Procedure: FIG. 4 Bone marrow toxicity profile of 6ab. To assess the toxicity of 6ab, the phosphate salt of the drug was injected into mice (100 mg/Kg) and bone marrow harvested from femur and tibia after 12, 24 and […] following the injection of the drug. The bone marrow cells were cultured in methylcellulose medium supplemented with a mixture of stem cell factor, GM-CSF, IL-3 and erythropoietin for one week and colony forming units were determined.
Bone marrow was harvested from femur and tibia of CD-1 mice injected with 200 μL of PBS or 6ab [10 mg/mL:100 mg/kg dose] at 12, 24, or 48 h before the sacrifice. The bone marrow cells were cultured in Methylcellulose medium supplemented with 50 ng/mL rmStem Cell Factor, 10 ng/mL rmIL-3, 10 ng/mL rh IL-6, 200 μg/mL human Transfeffin, and 3 units/mL rhErythropoietin (Stem Cell Technologies, Vancouver, BC, Canada). Cultures were seeded in duplicates using 35 mm plastic petri dishes and colony forming units were determined after one week.

[2] = system: mantle cell lymphoma cell lines; details: Park et al Oncogene 2007; cited from earlier work
[3] = H157, 96 h treatment, read-out: H157 IC50
[4] = H157, NSCLC, Table 2, read-out: Tumor cell killing (IC50) concentration

| Structure (SMILES) | IC50 [1, 3] [nM] | IC50 [1, 4] [nM] | IC50 (Sk-OV-3) [nM] | IC50 (HCT-116) [nM] | IC50 (SW480) [nM] | IC50 (K562) [nM] | IC50 (Daudi) [nM] | IC50 (MES-SA/DX5) [nM] | sensitivity of parental and MDR positive cell lines to cell killing activity (MES-SA/DX5; MES-SA and MES-SA/DX5) | IC50 2008 [nM] | IC50 (2008/17/4) [nM] | growth of tumor cells in soft agar (BT20) | PARP cleavage (HUVEC) | in vitro hematopoietic colony formation of bone marrow cells (bone marrow cells) | effect on mantle cell lymphoma cell lines [2] |
| --- | --- | --- | --- | --- | --- | --- | --- | --- | --- | --- | --- | --- | --- | --- | --- |
| COc1cc(OC)c(/C=C/S(=O)(=O)Cc2ccc(OC)c(O)c2)c(OC)c1 [6aa, (E)-2,4,6-Trimethoxystyryl-3-Hydroxy-4-Methoxybenzyl Sulfone] | 4 | 7 | 6 | 9 | 7 | 4 | 7 | 5 | equally sensitive | 5 | 4 | complete inhibition of the growth of tumor cells | No PARP cleavage was observed | no reduction in total, myeloid or lymphoid colony formation | altered the growth and cell cycle status |
| COc1ccc(CS(=O)(=O)/C=C/c2c(OC)cc(OC)cc2OC)cc1 [6s, (E)-2,4,6-Trimethoxystyryl-4-Methoxybenzyl sulfone] | 30 | 30 |  |  |  |  | 8 | 10 |  |  |  |  |  |  | altered the growth and cell cycle status |
